In ChEMBL document CHEMBL5131517 (ACS Med Chem Lett, 2022) one finds inhibition and Ki data, which are given here for 4 compounds.

What is called inhibition is how much of the control response was suppressed. The term pKi denotes the Ki on a negative log10 scale, so that one unit is a factor of ten.

pKi: −log10 of the molar value. Bounds are passed on as bounds.

Assay [1] addresses 5-hydroxytryptamine receptor 3A (Homo sapiens) (UniProt P46098). Kind of assay: Inhibition of 5HT3 receptor (unknown origin). The conditions noted are these: concentration not given here.
The target of assay [2] is T1, Beta-1 adrenergic receptor (Homo sapiens, UniProt P08588). Description: Inhibition of beta1 receptor (unknown origin). Particulars: concentration not given here.
Target sequence in this assay (P08588 whole entry, looked up): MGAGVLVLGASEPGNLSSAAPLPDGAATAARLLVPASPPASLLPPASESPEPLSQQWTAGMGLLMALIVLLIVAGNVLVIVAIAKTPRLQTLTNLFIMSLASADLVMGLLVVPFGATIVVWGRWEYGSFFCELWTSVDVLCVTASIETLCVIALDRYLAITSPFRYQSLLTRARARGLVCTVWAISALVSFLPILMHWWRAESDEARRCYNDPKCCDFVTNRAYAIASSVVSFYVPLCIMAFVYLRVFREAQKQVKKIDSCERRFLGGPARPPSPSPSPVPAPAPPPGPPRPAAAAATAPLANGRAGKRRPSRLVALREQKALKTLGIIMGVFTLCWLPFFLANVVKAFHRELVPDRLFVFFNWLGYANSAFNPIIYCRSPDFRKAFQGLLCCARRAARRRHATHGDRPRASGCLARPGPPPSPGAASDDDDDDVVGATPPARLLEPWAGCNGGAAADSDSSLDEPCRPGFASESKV
The target in another assay is D(4) dopamine receptor (Homo sapiens, UniProt P21917). Description: Binding affinity to D4 receptor (unknown origin) assessed as inhibition constant.
D(4) dopamine receptor, sequence (P21917 whole entry): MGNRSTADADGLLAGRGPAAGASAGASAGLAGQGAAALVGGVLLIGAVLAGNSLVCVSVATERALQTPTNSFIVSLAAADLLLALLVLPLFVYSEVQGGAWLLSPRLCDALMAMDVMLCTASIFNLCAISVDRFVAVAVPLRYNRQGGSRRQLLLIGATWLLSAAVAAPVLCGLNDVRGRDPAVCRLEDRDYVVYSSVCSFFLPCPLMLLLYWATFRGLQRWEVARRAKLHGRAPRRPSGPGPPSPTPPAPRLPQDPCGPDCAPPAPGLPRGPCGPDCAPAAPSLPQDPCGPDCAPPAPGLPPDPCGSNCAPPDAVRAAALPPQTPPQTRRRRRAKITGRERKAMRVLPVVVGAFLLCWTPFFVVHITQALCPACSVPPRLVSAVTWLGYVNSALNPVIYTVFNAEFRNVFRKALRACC
The target in assay [3] is Sodium-dependent serotonin transporter (Homo sapiens, UniProt P31645). Description: Binding affinity to SERT receptor (unknown origin) assessed as inhibition constant.
Assay [4] has as its target Sigma non-opioid intracellular receptor 1 (Homo sapiens, UniProt Q99720). Kind of assay: Inhibition of sigma 1 receptor (unknown origin). The conditions noted are these: concentration not given here.
For assay [5], the target named is 5-hydroxytryptamine receptor 3A (Homo sapiens, UniProt P46098). Description: Binding affinity to 5HT3 receptor (unknown origin) assessed as inhibition constant.
5-hydroxytryptamine receptor 3A, sequence (P46098 whole entry): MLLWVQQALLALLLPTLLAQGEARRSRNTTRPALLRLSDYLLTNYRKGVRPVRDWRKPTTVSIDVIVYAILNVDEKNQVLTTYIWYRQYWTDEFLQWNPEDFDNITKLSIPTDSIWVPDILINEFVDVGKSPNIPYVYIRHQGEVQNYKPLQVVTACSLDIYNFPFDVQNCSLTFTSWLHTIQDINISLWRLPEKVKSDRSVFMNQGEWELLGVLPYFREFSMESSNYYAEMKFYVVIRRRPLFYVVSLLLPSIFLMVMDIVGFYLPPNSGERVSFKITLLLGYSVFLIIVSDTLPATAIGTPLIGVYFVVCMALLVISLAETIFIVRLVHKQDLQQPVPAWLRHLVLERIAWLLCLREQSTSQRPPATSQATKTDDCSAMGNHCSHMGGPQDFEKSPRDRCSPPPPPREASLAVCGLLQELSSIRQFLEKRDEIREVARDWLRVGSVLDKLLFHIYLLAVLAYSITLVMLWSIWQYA
Assay [6] has as its target T1, Beta-1 adrenergic receptor. Description: Binding affinity to beta1 receptor (unknown origin) assessed as inhibition constant.
Target sequence in this assay (P08588 whole entry): as the sequence (P08588 whole entry, looked up) above
Assay [7] addresses D(4) dopamine receptor (Homo sapiens) (UniProt P21917). Kind of assay: Inhibition of D4 receptor (unknown origin). The conditions noted are these: concentration not given here.
The target of assay [8] is Alpha-2C adrenergic receptor (Homo sapiens, UniProt P18825). Kind of assay: Binding affinity to alpha2c (unknown origin) assessed as inhibition constant.
Alpha-2C adrenergic receptor, sequence (P18825 whole entry): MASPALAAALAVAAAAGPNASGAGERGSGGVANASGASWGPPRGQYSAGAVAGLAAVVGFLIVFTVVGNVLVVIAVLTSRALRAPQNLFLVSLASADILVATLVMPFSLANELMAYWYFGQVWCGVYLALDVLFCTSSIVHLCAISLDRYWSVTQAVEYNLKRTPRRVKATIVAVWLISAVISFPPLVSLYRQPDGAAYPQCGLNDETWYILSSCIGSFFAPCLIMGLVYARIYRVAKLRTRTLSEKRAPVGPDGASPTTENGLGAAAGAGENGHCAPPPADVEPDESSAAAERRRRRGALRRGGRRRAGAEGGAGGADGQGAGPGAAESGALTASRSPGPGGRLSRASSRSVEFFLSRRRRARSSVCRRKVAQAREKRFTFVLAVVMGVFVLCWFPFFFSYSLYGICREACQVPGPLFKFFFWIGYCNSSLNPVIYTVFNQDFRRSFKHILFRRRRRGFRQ
In assay [9] the target is 5-hydroxytryptamine receptor 1E (Homo sapiens, UniProt P28566). Description: Inhibition of 5HT1E receptor (unknown origin). The conditions noted are these: concentration not given here.
5-hydroxytryptamine receptor 1E, sequence (P28566 whole entry): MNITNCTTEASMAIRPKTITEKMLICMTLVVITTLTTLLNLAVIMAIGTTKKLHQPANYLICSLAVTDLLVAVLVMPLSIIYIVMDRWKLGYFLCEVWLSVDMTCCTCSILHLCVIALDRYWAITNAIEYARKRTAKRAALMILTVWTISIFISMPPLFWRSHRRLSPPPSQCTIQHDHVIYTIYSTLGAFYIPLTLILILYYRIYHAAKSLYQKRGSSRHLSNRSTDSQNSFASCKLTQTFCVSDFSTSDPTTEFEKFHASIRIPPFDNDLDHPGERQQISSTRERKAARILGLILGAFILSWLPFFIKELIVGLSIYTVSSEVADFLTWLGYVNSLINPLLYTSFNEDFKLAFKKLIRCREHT
The target in assay [10] is 5-hydroxytryptamine receptor 1B (Homo sapiens, UniProt P28222). Kind of assay: Inhibition of 5HT1B receptor (unknown origin). Particulars: concentration not given here.
5-hydroxytryptamine receptor 1B, sequence (P28222 whole entry): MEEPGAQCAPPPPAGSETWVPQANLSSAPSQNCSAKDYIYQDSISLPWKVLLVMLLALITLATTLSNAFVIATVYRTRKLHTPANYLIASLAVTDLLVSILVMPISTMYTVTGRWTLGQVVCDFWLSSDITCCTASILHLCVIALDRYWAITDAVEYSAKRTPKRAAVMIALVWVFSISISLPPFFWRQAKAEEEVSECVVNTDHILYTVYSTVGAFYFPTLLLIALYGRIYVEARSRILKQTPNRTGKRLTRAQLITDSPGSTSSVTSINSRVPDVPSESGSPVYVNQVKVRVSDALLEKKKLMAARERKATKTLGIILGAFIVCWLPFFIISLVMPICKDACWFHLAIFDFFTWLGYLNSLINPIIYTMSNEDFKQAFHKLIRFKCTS
In assay [11] the target is Sigma intracellular receptor 2 (Homo sapiens, UniProt Q5BJF2). Kind of assay: Binding affinity to sigma 2 receptor (unknown origin) assessed as inhibition constant.
Sigma intracellular receptor 2, sequence (Q5BJF2 whole entry): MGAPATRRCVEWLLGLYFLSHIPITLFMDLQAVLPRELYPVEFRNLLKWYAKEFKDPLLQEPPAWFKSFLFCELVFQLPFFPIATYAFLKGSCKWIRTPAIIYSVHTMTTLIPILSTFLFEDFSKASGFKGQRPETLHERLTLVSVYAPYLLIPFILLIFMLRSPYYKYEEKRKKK
Another assay addresses D(3) dopamine receptor (Homo sapiens, UniProt P35462). Kind of assay: Binding affinity to D3 receptor (unknown origin) assessed as inhibition constant.

D(4) dopamine receptor (Homo sapiens), sequence (P21917 whole entry): as the sequence (P21917 whole entry) above
5-hydroxytryptamine receptor 3A (Homo sapiens), sequence (P46098 whole entry): as the sequence (P46098 whole entry) above
D(3) dopamine receptor, sequence (P35462 whole entry): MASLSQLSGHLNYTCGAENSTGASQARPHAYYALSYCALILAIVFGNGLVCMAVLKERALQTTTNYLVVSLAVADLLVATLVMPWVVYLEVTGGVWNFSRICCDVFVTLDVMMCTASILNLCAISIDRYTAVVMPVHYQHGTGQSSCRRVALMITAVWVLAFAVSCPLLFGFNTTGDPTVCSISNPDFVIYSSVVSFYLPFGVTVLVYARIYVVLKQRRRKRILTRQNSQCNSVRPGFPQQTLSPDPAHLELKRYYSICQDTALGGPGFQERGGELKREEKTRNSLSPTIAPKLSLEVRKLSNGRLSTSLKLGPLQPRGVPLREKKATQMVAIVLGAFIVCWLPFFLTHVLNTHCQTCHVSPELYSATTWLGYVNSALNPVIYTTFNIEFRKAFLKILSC
Sigma non-opioid intracellular receptor 1, sequence (Q99720 whole entry): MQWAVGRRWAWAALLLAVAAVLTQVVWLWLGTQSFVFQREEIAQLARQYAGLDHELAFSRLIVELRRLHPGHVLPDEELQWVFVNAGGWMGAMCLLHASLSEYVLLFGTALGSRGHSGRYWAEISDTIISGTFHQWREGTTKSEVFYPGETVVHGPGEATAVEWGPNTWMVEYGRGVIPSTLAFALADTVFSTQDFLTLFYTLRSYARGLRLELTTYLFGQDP

Turning to `COc1ccc(C2NCCc3c2[nH]c2ccc(F)cc32)c(O)c1` (stereo not given), the inhibition in [1], in assay [2] and in assay [4] was below 50% each time. In addition, the negative logarithm of the Ki (pKi) was 6.44 on D(4) dopamine receptor and 5.73 in assay [3].
Regarding `COc1cc(OC)c(C2NCCc3c2[nH]c2ccc(Cl)cc32)cc1OC` (stereo not given), the figures for the pKi in assay [5] and in assay [6] were 5.56 and 5.83, respectively. Besides, in [7], the inhibition was below 50%.
Turning to `COc1cc(OC)c(C2NCCc3c2[nH]c2ccc(F)cc32)cc1OC` (stereo not given), the inhibition in [1], in [7], in [9] and in [10] was below 50% throughout. Besides, the pKi is 6.02 in assay [8], 6.02 in [6] and 5.63 in assay [11].
For `COc1ccc(C2NCCc3c2[nH]c2ccc(Cl)cc32)c(O)c1` (stereo not given), the pKi in assay [5] is 5.55; at D(3) dopamine receptor, 5.90; at D(4) dopamine receptor it was 6.22. For the same compound, the inhibition in [2] was below 50%; in [3] (filed as agonist, concentration not given here) it was below 50%.
